Measured values reported in ChEMBL document CHEMBL5506069, “A Unique Hybridization Route to Access Hydrazylnaphthalimidols as Novel Structural Scaffolds of Multitargeting Broad-Spectrum Antifungal Candidates” (J Med Chem, 2024).
≈ marks a conversion by molar mass, not a printed value. Calls of active or inactive are those of the source. The calls are words filed in the database; no cut-off is given here.

Assays:
[1] = system: Candida albicans; experiment: Potency index, ratio of fluconazole MIC to test compound MIC for antifungal activity against Candida albicans assessed as inhibition of fungal growth incubated for 24 hrs by CLSI based microbroth dilution method; format: functional
[2] = target: T1, Albumin (Homo sapiens, UniProt P02768); experiment: Binding affinity to human serum albumin assessed as Stem-Volmer quenching constant at 310K at pH 7.4 by fluorescence based analysis
T1 sequence (P02768 whole entry): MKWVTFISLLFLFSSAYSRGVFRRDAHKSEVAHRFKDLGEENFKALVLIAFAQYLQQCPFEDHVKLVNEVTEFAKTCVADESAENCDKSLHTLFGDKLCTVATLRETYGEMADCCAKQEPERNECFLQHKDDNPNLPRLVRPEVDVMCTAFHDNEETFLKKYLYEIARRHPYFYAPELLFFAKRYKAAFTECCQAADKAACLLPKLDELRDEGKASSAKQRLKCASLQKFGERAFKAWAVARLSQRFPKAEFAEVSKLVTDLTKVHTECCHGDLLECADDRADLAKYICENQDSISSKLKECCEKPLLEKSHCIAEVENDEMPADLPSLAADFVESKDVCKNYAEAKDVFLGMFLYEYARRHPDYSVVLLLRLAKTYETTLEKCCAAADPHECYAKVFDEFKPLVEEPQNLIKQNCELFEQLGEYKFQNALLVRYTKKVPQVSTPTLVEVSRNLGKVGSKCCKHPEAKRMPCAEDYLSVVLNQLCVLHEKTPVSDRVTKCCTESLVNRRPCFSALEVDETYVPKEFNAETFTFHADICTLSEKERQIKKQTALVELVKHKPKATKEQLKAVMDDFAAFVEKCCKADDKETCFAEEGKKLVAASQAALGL

[3] = system: Erythrocyte; experiment: Hemolytic activity in RBC (unknown origin) assessed as appearance of smooth surface at 128 times MIC measured for 6 hrs by microscopic analysis; format: toxicity, cell-based
[4] = system: Candida albicans; experiment: Induction of intracellular ROS production in Candida albicans assessed as fold increase in fluorescence intensity at 4 to 128 times MIC incubated for 6 hrs by DCFH-DA staining based analysis; format: functional, organism-based
[5] = system: Calf thymus DNA; experiment: Binding affinity to calf thymus DNA assessed as change in red shift by measuring hypochromism upto 7 mM by UV-Vis absorption spectra analysis; format: nucleic-acid assay; conditions: Bos taurus
[6] = system: Calf thymus DNA; experiment: Binding affinity to calf thymus DNA assessed as DNA-compound complex formation by measuring hyperchromism upto 7 mM by UV-Vis absorption spectra analysis; format: nucleic-acid assay; conditions: Bos taurus
[7] = system: Calf thymus DNA; experiment: Induction of DNA cleavage in calf thymus DNA at 0.5 mM in presence of Zn2+ by agarose gel electrophoresis analysis; format: nucleic-acid assay; conditions: Bos taurus
[8] = system: Candida parapsilosis; experiment: Antifungal activity against Candida parapsilosis ATCC 22019 assessed as inhibition of fungal growth incubated for 24 hrs by CLSI based microbroth dilution method; format: functional; conditions: Lodderomyces parapsilosis
[9] = system: Cell membrane; experiment: Induction of cell membrane potential loss in Candida albicans assessed as change in fluorescence intensity at 4 times MIC measured for 30 mins by DiSC3-5 dye based fluorescence method; format: subcellular
[10] = system: Cell membrane; experiment: Induction of cell membrane damage in Candida albicans assessed as increase in red fluorescent intensity at 4 to 8 times MIC measured for 6 hrs by PI staining based spectrofluorimeter analysis
[11] = system: Candida albicans; experiment: Induction of morphological changes in Candida albicans assessed as appearance of oval shape by SEM analysis; format: functional, organism-based
[12] = system: Candida tropicalis; experiment: Antifungal activity against Candida tropicalis assessed as inhibition of fungal growth incubated for 24 hrs by CLSI based microbroth dilution method; format: functional
[13] = system: Candida albicans; experiment: Induction of morphological changes in Candida albicans assessed as appearance of atrophied surface at 2 times MIC measured after 6 hrs by SEM analysis; format: functional, organism-based
[14] = system: Candida albicans; experiment: Antioxidant activity in Candida albicans assessed as decrease in GSH content measured at 5 mins by ellman method; format: functional; design: scale not given: the % may be the effect or the level left
[15] = system: Candida albicans; experiment: Antibiofilm activity against Candida albicans assessed as inhibition of biofilm formation at 0.5 to 8 microg/ml measured for 24 hrs by crystal violet staining based; format: functional; conditions: dose 0.5-8 µg/ml, at 0.5 to 8 µg/mL
[16] = target: T1, Albumin; experiment: Binding affinity to human serum albumin assessed as Stem-Volmer quenching constant at 286K at pH 7.4 by fluorescence based analysis
[17] = system: Candida albicans; experiment: Induction of morphological changes in Candida albicans assessed as appearance of regular continuous surface by SEM analysis; format: functional, organism-based
[18] = system: Candida albicans; experiment: Antifungal activity against Candida albicans at 4 times MIC measured within 10 hrs by time kill assay; format: functional, organism-based
[19] = system: Cell membrane; experiment: Induction of cell membrane damage in Candida albicans assessed as increase in fluorescent intensity at 0.5 to 8 times MIC measured for 6 hrs by PI staining based spectrofluorimeter analysis; format: subcellular
[20] = system: Calf thymus DNA; experiment: Induction of DNA cleavage in calf thymus DNA at 0.5 mM in presence of Cu2+ by agarose gel electrophoresis analysis; format: nucleic-acid assay; conditions: Bos taurus
[21] = system: Candida albicans; experiment: Antifungal activity against Candida albicans ATCC 90023 assessed as inhibition of fungal growth incubated for 24 hrs by CLSI based microbroth dilution method; format: functional
[22] = system: Cell membrane; experiment: Induction of cytoplasmic membrane depolarization in Candida albicans assessed as increase in fluorescence intensity at 4 times MIC measured for 30 mins by DiSC3-5 dye based fluorescence method; format: cell membranes
[23] = system: L02; experiment: Cytotoxicity against human L02 cells assessed as effect on cell growth incubated for 24 to 48 hrs by MTT assay; format: toxicity, cell-based; conditions: time 24-48 hrs
[24] = system: Candida albicans; experiment: Induction of morphological changes in Candida albicans assessed as appearance of dented surface at 2 times MIC measured after 6 hrs by SEM analysis; format: functional, organism-based
[25] = system: Candida albicans; experiment: Induction of morphological changes in Candida albicans assessed as deformation of cell shape at 2 times MIC measured after 6 hrs by SEM analysis; format: functional, organism-based
[26] = Hemolytic activity in RBC (unknown origin) assessed as hemolysis rate 128 times MIC measured for 6 hrs by double dilution method; format: toxicity, cell-based, Erythrocyte; conditions: red blood cells (erythrocytes), read-out: Activity
[27] = system: Candida albicans; experiment: Antifungal activity against Candida albicans assessed as reduction in LDH activity by measuring fluorescence intensity at 8 times MIC measured for 6 hrs by alamar blue staining based analysis; format: functional; design: scale not given: the % may be the effect or the level left
[28] = system: Aspergillus fumigatus; experiment: Antifungal activity against Aspergillus fumigatus assessed as inhibition of fungal growth incubated for 24 hrs by CLSI based microbroth dilution method; format: functional
[29] = system: Candida albicans; experiment: Induction of intracellular ROS production in Candida albicans assessed as increase in fluorescence intensity incubated for 6 hrs by DCFH-DA staining based analysis; format: functional, organism-based
[30] = system: Candida albicans; experiment: Antifungal activity against Candida albicans assessed as reduction in metabolic activity by measuring fluorescence intensity at 0.5 to 8 times MIC measured for 6 hrs by alamar blue staining based analysis; format: functional, organism-based
[31] = system: Candida albicans; experiment: Induction of intracellular ROS production in Candida albicans assessed as fold increase in fluorescence intensity at 1 times MIC incubated for 6 hrs by DCFH-DA staining based analysis; format: functional
[32] = system: Candida albicans; experiment: Antioxidant activity in Candida albicans assessed as decrease in GSH content at 1 times MIC measured at 30 mins by ellman method; format: functional; design: scale not given: the % may be the effect or the level left; conditions: 0.5 h
[33] = system: Calf thymus DNA; experiment: Induction of DNA cleavage in calf thymus DNA assessed as change in DNA band formation at 0.05 to 0.5 mM by agarose gel electrophoresis analysis; format: nucleic-acid assay; conditions: Bos taurus; dose 0.05-0.5 mM
[34] = system: Calf thymus DNA; experiment: Binding affinity to calf thymus DNA assessed as binding constant by UV-Vis absorption spectra analysis; format: nucleic-acid assay; conditions: Bos taurus
[35] = system: Candida albicans; experiment: Antioxidant activity in Candida albicans assessed as decrease in GSH content at 2 times MIC measured at 30 mins by ellman method; format: functional; design: scale not given: the % may be the effect or the level left; conditions: 0.5 h
[36] = system: Candida albicans; experiment: Antibiofilm activity against Candida albicans assessed as reduction in residual biomass measured for 24 hrs by crystal violet staining based; format: functional, organism-based; conditions: dose <= 8.0 µg/ml
[37] = system: Calf thymus DNA; experiment: Induction of DNA cleavage in calf thymus DNA at 0.05 to 0.5 mM in presence of Zn2+ by agarose gel electrophoresis analysis; format: nucleic-acid assay; conditions: Bos taurus; dose 0.05-0.5 mM
[38] = system: Candida albicans; experiment: Antifungal activity against Candida albicans assessed as inhibition of fungal growth incubated for 24 hrs by CLSI based microbroth dilution method; format: functional
[39] = system: Candida albicans; experiment: Antifungal activity against Candida albicans assessed as reduction in metabolic activity by measuring fluorescence intensity measured for 6 hrs by alamar blue staining based analysis; format: functional, organism-based
[40] = system: Candida albicans; experiment: Antifungal activity against Candida albicans assessed as reduction in LDH activity by measuring fluorescence intensity measured for 6 hrs by alamar blue staining based analysis; format: functional, organism-based
[41] = target: T1, Albumin; experiment: Binding affinity to human serum albumin assessed as Stem-Volmer quenching constant at 298K at pH 7.4 by fluorescence based analysis
[42] = system: Candida albicans; experiment: Antifungal activity against Candida albicans measured after at 14 passages; format: functional, organism-based
[43] = system: Candida albicans; experiment: Induction of intracellular ROS production in Candida albicans assessed as increase in green fluorescence intensity at 4 times MIC incubated for 6 hrs by fluorescence microscopic analysis; format: functional, organism-based
[44] = system: Candida albicans; experiment: […] in Candida albicans assessed as decrease in pink fluorescence by resazurin staining based analysis; format: functional, organism-based
[45] = system: Erythrocyte; experiment: Hemolytic activity in RBC (unknown origin) assessed as appearance of round surface at 128 times MIC measured for 6 hrs by microscopic analysis; format: toxicity, cell-based
[46] = system: Calf thymus DNA; experiment: Binding affinity to calf thymus DNA assessed as decrease in fluorescence intensity by acridine orange dye based by UV-Vis absorption spectra analysis; format: nucleic-acid assay; conditions: Bos taurus
[47] = system: Calf thymus DNA; experiment: Induction of DNA cleavage in calf thymus DNA at 0.05 to 0.5 mM in presence of Cu2+ by agarose gel electrophoresis analysis; format: nucleic-acid assay; conditions: Bos taurus; dose 0.05-0.5 mM

## O=C1c2cccc3c(N/N=C/c4ccc([N+](=O)[O-])o4)ccc(c23)C(=O)N1CCO
[1]
  Ratio: 13
[2]
  KSV: 8.82 10^4L/mol
[3]
  Activity: Non-Toxic
[4]
  Activity: Active
[5]
  Activity: Active
[6]
  Activity: Active
[7]
  Activity: inactive
[8]
  MIC: 4 µM (≈ 1.58 µg/mL)
[9]
  Activity: inactive
[10]
  Activity: Active
[11]
  Activity: Active
[12]
  MIC: 2 µM (≈ 0.789 µg/mL)
[13]
  Activity: Active
[14]
  Activity: 70%
[15]
  inhibition (INH): 22%
[16]
  KSV: 12.6 10^4L/mol
[17]
  Activity: Active
[18]
  Activity: Active
[19]
  Activity: Active
[20]
  Activity: inactive
[21]
  MIC: 2 µM (≈ 0.789 µg/mL)
[22]
  Activity: inactive
[23]
  Activity: Non-Toxic
[24]
  Activity: Active
[25]
  Activity: Active
[26]
  hemolysis at 6 h, 128 times MIC: < 5%
[27]
  Activity: <55%
[28]
  MIC: 4 µM (≈ 1.58 µg/mL)
[29]
  Activity: Dose-Dependent Effect
[30]
  Activity: Active
[31]
  fold change (FC): 2.5
[32]
  Activity: 50%
[33]
  Activity: inactive
[34]
  K: 2.4 10^4L/mol
[35]
  Activity: 40%
[36]
  Activity: Dose-Dependent Effect
[37]
  Activity: inactive
[38]
  MIC: 1 µM (≈ 0.394 µg/mL)
[39]
  Activity: Dose-Dependent Effect
[40]
  Activity: Dose-Dependent Effect
[41]
  KSV: 9.34 10^4L/mol
[42]
  Activity: Active
[43]
  Activity: Active
[44]
  Activity: Dose-Dependent Effect
[45]
  Activity: Non-Toxic
[46]
  Activity: Active
[47]
  Activity: inactive
